Test results: ChEMBL document CHEMBL3627697, “Aminopyrazolo[1,5-a]pyrimidines as potential inhibitors of Mycobacterium tuberculosis: Structure activity relationships and ADME characterization” (Bioorg Med Chem, 2015)
In brackets after ≈: the same amount, converted by molar mass.

How the values were obtained:
[1] = Kinetic solubility of the compound at pH 7.4 after 2 hrs by shake flask method-based HPLC-DAD analysis; assay type: physicochemical; details: buffer, read-out: Kinetic_solubility
[2] = tested on: Mycobacterium tuberculosis; assay: Antimycobacterial activity against Mycobacterium tuberculosis H37Rv in 7H9/ADC/Tween medium measured at day 14 by Alamar Blue assay; assay type: functional; details: 336 h
[3] = tested on: Mycobacterium tuberculosis; assay: Antimycobacterial activity against Mycobacterium tuberculosis H37Rv in GAST-Fe medium measured at day 14 by Alamar Blue assay; assay type: functional; details: 336 h
[4] = Metabolic stability in mouse liver microsomes assessed as compound remaining at 0.1 uM measured at 30 mins by LC-MS/MS analysis; assay type: ADME; details: read-out: Stability
[5] = Metabolic stability in rat liver microsomes assessed as compound remaining at 0.1 uM measured at 30 mins by LC-MS/MS analysis; assay type: ADME; details: read-out: Stability
[6] = Metabolic stability in human liver microsomes assessed as compound remaining at 0.1 uM measured at 30 mins by LC-MS/MS analysis; assay type: ADME; details: read-out: Stability
CHO = assay: Cytotoxicity against CHO cells assessed as cell viability by MTT assay; assay type: cell-based; details: Cricetulus griseus
[7] = tested on: Mycobacterium tuberculosis; assay: Antimycobacterial activity against Mycobacterium tuberculosis H37Rv in GAST medium with low Fe level measured at day 14 by Alamar Blue assay; assay type: functional; details: 336 h

Row | Compound | solubility kinetic at 2 h [1] [µM] | MIC99 [2] [µM] | other results
1 | Cc1cc(NCc2ccccn2)n2ncc(-c3ccc(Cl)cc3)c2n1 | < 5 | 10 (≈ 3.5 µg/mL) | –
2 | Cc1cc(NCc2ccccn2)n2ncc(-c3ccccc3)c2n1 | < 5 | 10 (≈ 3.15 µg/mL) | –
3 | Cc1cc(NCc2ccccn2)n2nc(C)c(-c3ccccc3)c2n1 | < 5 | 5 (≈ 1.65 µg/mL) | MIC99 [3]: > 160 µM; remaining at 0.5 h, 0.1 µM [4]: 6.2%; remaining at 0.5 h, 0.1 µM [5]: 39%; remaining at 0.5 h, 0.1 µM [6]: 51.9%; IC50 (CHO): 34 µM; MIC99 [7]: > 160 µM
4 | Cc1cc(NCc2ccccn2)n2ncc(-c3ccc(F)cc3)c2n1 | < 5 | 5 (≈ 1.67 µg/mL) | –
5 | Cc1cc(NCc2cccnc2)n2nc(C)c(-c3ccccc3)c2n1 | 110 (≈ 36.3 µg/mL) | > 160 | –
6 | Cc1cc(NCc2ccncc2)n2nc(C)c(-c3ccccc3)c2n1 | 134 (≈ 44 µg/mL) | > 160 | –
7 | Cc1cc(NCc2ncccn2)n2nc(C)c(-c3ccccc3)c2n1 | 37.9 (≈ 12.5 µg/mL) | 80 (≈ 26.4 µg/mL) | –
8 | Cc1cc(NCc2cnccn2)n2nc(C)c(-c3ccccc3)c2n1 | 7.1 (≈ 2.35 µg/mL) | 80 (≈ 26.4 µg/mL) | –
9 | Cc1cc(NCCc2ccccn2)n2nc(C)c(-c3ccccc3)c2n1 | < 5 | > 160 | –
10 | Cc1cc(NCCCc2ccccn2)n2nc(C)c(-c3ccccc3)c2n1 | 5.9 (≈ 2.11 µg/mL) | 80 (≈ 28.6 µg/mL) | –
11 | Cc1cc(Nc2ccccn2)n2nc(C)c(-c3ccccc3)c2n1 | < 5 | > 160 | –
12 | Cc1cc(N(C)Cc2ccccn2)n2nc(C)c(-c3ccccc3)c2n1 | 17.5 (≈ 6.01 µg/mL) | > 160 | –
13 | Cc1cc(OCc2ccccn2)n2nc(C)c(-c3ccccc3)c2n1 | 25.6 (≈ 8.46 µg/mL) | > 160 | –
14 | Cc1cc(NCc2nccn2C)n2nc(C)c(-c3ccccc3)c2n1 | 26.9 (≈ 8.94 µg/mL) | 5 (≈ 1.66 µg/mL) | MIC99 [3]: 37 µM (≈ 12.3 µg/mL); IC50 (CHO): < 9 µM; MIC99 [7]: 20 µM (≈ 6.65 µg/mL)
15 | Cc1cc(NCc2ncc[nH]2)n2nc(C)c(-c3ccccc3)c2n1 | < 5 | 37 (≈ 11.8 µg/mL) | –
16 | Cc1cc(NCc2c[nH]cn2)n2nc(C)c(-c3ccccc3)c2n1 | 14.6 (≈ 4.65 µg/mL) | > 160 | –
17 | Cc1cccc(CNc2cc(C)nc3c(-c4ccccc4)c(C)nn23)n1 | < 5 | > 160 | –
18 | Cc1cc(NCc2ccco2)n2nc(C)c(-c3ccccc3)c2n1 | < 5 | > 160 | –
19 | Cc1cc(NCc2cccs2)n2nc(C)c(-c3ccccc3)c2n1 | < 5 | > 160 | –
20 | Cc1cc(NCc2nccs2)n2nc(C)c(-c3ccccc3)c2n1 | 108 (≈ 36.1 µg/mL) | > 160 | –
21 | Cc1cc(NCc2ccc3ccccc3n2)n2nc(C)c(-c3ccccc3)c2n1 | < 5 | > 160 | –
22 | Cc1cc(NCc2ccccn2)n2nc(C)c(-c3ccc(F)cc3)c2n1 | < 5 | 5 (≈ 1.74 µg/mL) | –
23 | COc1ccc(-c2c(C)nn3c(NCc4ccccn4)cc(C)nc23)cc1 | < 5 | 20 (≈ 7.19 µg/mL) | –
24 | COc1ccc(-c2cnn3c(NCc4ccccn4)cc(C)nc23)cc1 | < 5 | 20 (≈ 6.91 µg/mL) | –
25 | Cc1ccc(-c2cnn3c(NCc4ccccn4)cc(C)nc23)cc1 | < 5 | 5 (≈ 1.65 µg/mL) | –
26 | Cc1cc(NCc2ccccn2)n2ncc(-c3ccc(N(C)C)cc3)c2n1 | < 5 | 20 (≈ 7.17 µg/mL) | –
27 | Cc1cc(NCc2ccccn2)n2ncc(-c3ccc(C(F)(F)F)cc3)c2n1 | < 5 | > 160 | –
28 | Cc1cc(NCc2ccccn2)n2ncc(-c3ccc(C#N)cc3)c2n1 | < 5 | > 160 | –
29 | Cc1cc(NCc2ccccn2)n2ncc(-c3cccc(Cl)c3)c2n1 | < 5 | 2.5 (≈ 0.875 µg/mL) | MIC99 [3]: > 160 µM; IC50 (CHO): 3.78 µM; MIC99 [7]: > 160 µM
30 | Cc1cc(NCc2ccccn2)n2ncc(-c3cccc(F)c3)c2n1 | 5 (≈ 1.67 µg/mL) | 2.5 (≈ 0.833 µg/mL) | –
